Data set [1] deals with T1, recombinant human plasminogen activator inhibitor-1 (PAI-1) (Homo sapiens, UniProt P05121).
T1 construct: purchased Molecular Innovations, Royal Oak, Mich
Put plainly: Primary Screen for the PAI-1 Inhibition. To be noted: for IC50: footnote b: determined by a modification of the Primary Screen for PAI-1 Inhibition; for inhibition at 25 µM: 25 μM test compound. It counts as biochemical. How it is done: Test compounds are dissolved in DMSO at a final concentration of 10 mM, then diluted 100× in physiologic buffer. The inhibitory assay is initiated by the addition of the test compound (1-100 μM final concentration, maximum DMSO concentration of 0.2%) in a pH 6.6 buffer containing 140 nM recombinant human plasminogen activator inhibitor-1 (PAI-1; Molecular Innovations, Royal Oak, Mich.). Following a 1 hour incubation at room temperature, 70 nM of recombinant human tissue plasminogen activator (tPA) is added, and the combination of the test compound, PAI-1 and tPA is incubated for an additional 30 minutes. Following the second incubation, Spectrozyme-tPA (American Diagnostica, Greenwich, Conn.), a chromogenic substrate for tPA, is added and absorbance read at 405 nm at 0 and 60 minutes. Relative PAI-1 inhibition is equal to the residual tPA activity in the presence of the test compound and PAI-1. Control treatments include the complete inhibition of tPA by PAI-1 at the molar ratio employed (2:1), and the absence of any effect of the test compound on tPA alone.

The target in data set [2] is human PAI-1 (Homo sapiens, UniProt P05121). The experiment in a line: Assay for Determining IC50 of Inhibition of PAI-1 (Antibody Assay). To be noted: footnote a: determined by the Antibody Assay. The data set is classed as binding. The protocol:
This assay is based upon the non-SDS dissociable interaction between tPA and active PAI-1. Assay plates are initially coated with human tPA (10 μg/ml). Test compounds are dissolved in DMSO at 10 mM, then diluted with physiologic buffer (pH 7.5) to a final concentration of 1-50 μM. Test compounds are incubated with human PAI-1 (50 ng/ml) for 15 minutes at room temperature. The tPA-coated plate is washed with a solution of 0.05% Tween 20 and 0.1% BSA, then the plate is blocked with a solution of 3% BSA. An aliquot of the test compound/PAI-1 solution is then added to the tPA-coated plate, incubated at room temperature for 1 hour, and washed. Active PAI-1 bound to the plate is assessed by adding an aliquot of a 1:1000 dilution of the 33B8 monoclonal antibody against human PAI-1, and incubating the plate at room temperature for 1 hour (Molecular Innovations, Royal Oak, Mich.). […] The plate is incubated 45 minutes at room temperature, and color development is determined at OD405 nm. The quantitation of active PAI-1 bound to tPA at varying concentrations of test compound is used to determine the IC50. Results are analyzed using a logarithmic best-fit equation. The assay sensitivity is 5 ng/ml of human PAI-1 as determined from a standard curve ranging from 0-100 ng/ml.

Structures can show the parent of a compound that is named as a salt.

T1 sequence (P05121 24-402): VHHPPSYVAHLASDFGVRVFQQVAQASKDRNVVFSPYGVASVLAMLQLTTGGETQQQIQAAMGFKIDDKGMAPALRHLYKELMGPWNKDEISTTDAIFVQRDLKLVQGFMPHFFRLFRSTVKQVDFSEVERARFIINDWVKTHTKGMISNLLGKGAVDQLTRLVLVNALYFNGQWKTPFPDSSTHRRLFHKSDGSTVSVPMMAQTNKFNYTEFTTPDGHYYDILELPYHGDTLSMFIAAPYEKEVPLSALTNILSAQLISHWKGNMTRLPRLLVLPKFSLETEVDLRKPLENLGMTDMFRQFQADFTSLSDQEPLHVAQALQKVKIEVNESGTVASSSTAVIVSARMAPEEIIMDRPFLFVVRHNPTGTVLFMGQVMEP
Sequence of human PAI-1 (P05121 24-402): as above

Turning to `c1ccc2oc(-c3ccc(OCc4nnn[nH]4)c4ncccc34)cc2c1` (as salt: salt) [Compound 3, 5-(1-Benzofuran-2-yl)-8-(1H-tetraazol-5-ylmethoxy)quinoline], the melting point (commonly the temperature of the solid-liquid transition) was > 240 °C (dec.). As for `c1ccc(-c2c(-c3ccc(OCc4nnn[nH]4)c4ncccc34)oc3ccccc23)cc1` (as salt: salt) [Compound 4, 5-(3-Phenyl-1-benzofuran-2-yl)-8-quinolinyl 1H-tetraazol-5-ylmethyl ether], the melting point is > 273 °C (dec.).

Regarding `CCCCCc1c(-c2ccc(OCc3nnn[nH]3)c3ncccc23)oc2ccccc12` (as salt: salt) [Compound 5, 5-(3-Pentyl-1-benzofuran-2-yl)-8-(1H-tetraazol-5-ylmethoxy)quinoline], the melting point was 226 to 228 °C (dec.). Take `FC(F)(F)c1cc(OCc2nnn[nH]2)c2cc(-c3cc4ccccc4o3)ccc2n1` [Compound 1, 6-(1-Benzofuran-2-yl)-2-(trifluoromethyl)quinolin-4-yl 1H-tetraazol-5-ylmethyl ether]: the melting point was > 225 °C (dec.). Also, the IC50 – broadly, the concentration at which inhibition is half-maximal – in data set [1] worked out at 38.6 µM.

With `CCCCCc1c(-c2ccc3nc(C(F)(F)F)cc(OCc4nnn[nH]4)c3c2)oc2ccccc12` [Compound 2, 6-(3-Pentyl-1-benzofuran-2-yl)-4-(1H-tetraazol-5-ylmethoxy)-2-(trifluoromethyl)-quinoline], the melting point is 207 to 209 °C (dec.). The molecule also gave a half-maximal inhibitory concentration (IC50) in data set [2] of 21.5 µM. With `c1ccc2oc(-c3ccc(OCc4nnn[nH]4)c4ncccc34)cc2c1` [Compound 3, 5-(1-Benzofuran-2-yl)-8-(1H-tetraazol-5-ylmethoxy)quinoline], in data set [1], the inhibition (in general, the percentage by which the read-out fell short of the control) at 25 µM came out at 20%. For the molecule `c1ccc(-c2c(-c3ccc(OCc4nnn[nH]4)c4ncccc34)oc3ccccc23)cc1` [Compound 4, 5-(3-Phenyl-1-benzofuran-2-yl)-8-quinolinyl 1H-tetraazol-5-ylmethyl ether], the inhibition at 25 µM in data set [1] was 55%. Take `CCCCCc1c(-c2ccc(OCc3nnn[nH]3)c3ncccc23)oc2ccccc12` [Compound 5, 5-(3-Pentyl-1-benzofuran-2-yl)-8-(1H-tetraazol-5-ylmethoxy)quinoline]: the concentration for half-maximal inhibition (IC50) in data set [1] is 8.1 µM.
